Reference: patent publication US20050107423A1, “Quinolone antibacterial agents” (priority 2003, published 2005)
≈ marks a conversion by molar mass, not a printed value.

Experiments:
Test in all cases: Antibacterial assay, microtitration MIC (Test A)
Type in all cases: cell-based
H. influenzae HI-3542 = settings: Haemophilus influenzae, HI3542, Gram Negative Bacteria; strain HI-3542; read-out: Minimum Inhibitory Concentrations H. influenzae HI-3542
Description: (§1) The compounds of the present invention were tested against an assortment of Gram-negative and Gram-positive organisms using standard microtitration techniques (Cohen et. al., Antimicrob., 1985;28:766; Heifetz, et. al., Antimicrob., 1974;6:124). The results of the evaluation are shown in Tables 1A and B, wherein “-” means no data.

E. coli EC-2549 = settings: Escherichia coli, EC2549, Gram Negative Bacteria; strain EC-2549; read-out: Minimum Inhibitory Concentrations E. coli EC-2549
Description: as §1

M. catarrhalis BC-3531 = settings: Moraxella catarrhalis, BC3531, Gram Negative Bacteria; strain BC-3531; read-out: Minimum Inhibitory Concentrations M. catarrhalis BC-3531
Description: as §1

S pyogenes C203 = settings: Gram Positive Bacteria, strain C203; for MIC: read-out: Minimum Inhibitory Concentrations S pyogenes C203
Description: as §1

S. pneumo SV-1 = settings: Gram Positive Bacteria, strain SV-1; for MIC: read-out: Minimum Inhibitory Concentrations S. pneumo SV-1
Description: as §1

E. faecalis MGH-2 = settings: strain MGH-2; for MIC: Enterococcus faecalis, MGH2, Gram Positive Bacteria, read-out: Minimum Inhibitory Concentrations E. faecalis MGH-2
Description: as §1

Row | Compound | MIC (S pyogenes C203) [µg/mL] | MIC (S. pneumo SV-1) [µg/mL] | MIC (E. faecalis MGH-2) [µg/mL] | also measured
1 | COc1c(N2C[C@@H](CO)[C@@H](CO)C2)c(F)cc2c(=O)c(C(=O)O)cn(C3CC3)c12 [drawing 384] |  |  |  | MIC (H. influenzae HI-3542): 0.004 µg/mL (≈ 0.00984 µM); MIC (E. coli EC-2549): 0.125 µg/mL (≈ 0.308 µM); MIC (M. catarrhalis BC-3531): 0.015 µg/mL (≈ 0.0369 µM)
2 | Nc1nc(-n2cc(C(=O)O)c(=O)c3cc(F)c(N4CCC(C(O)C(F)F)C4)c(Cl)c32)c(F)cc1F (stereo not drawn) [drawing 351] | 0.125 (≈ 0.241 µM) | 0.06 (≈ 0.116 µM) | 0.25 (≈ 0.482 µM) | 
3 | COc1c(N2CCC(C(O)c3ccc(S(C)(=O)=O)o3)C2)c(F)cc2c(=O)c(C(=O)O)cn(C3CC3)c12 (stereo not drawn) [drawing 319] |  |  |  | MIC (H. influenzae HI-3542): 0.06 µg/mL (≈ 0.115 µM); MIC (E. coli EC-2549): 2 µg/mL (≈ 3.84 µM); MIC (M. catarrhalis BC-3531): 0.125 µg/mL (≈ 0.24 µM)
4 | O=C(O)c1cn(C2CC2)c2nc(N3CCC(C(O)C(F)(F)F)C3)c(F)cc2c1=O (stereo not drawn) [drawing 367] | 1 (≈ 2.41 µM) | 0.5 (≈ 1.2 µM) | 0.25 (≈ 0.602 µM) | 
5 | COc1c(N2C[C@@H]3CC[C@@H](O)[C@@H]3C2)c(F)cc2c(=O)c(C(=O)O)cn(C3CC3)c12 [drawing 443] |  |  |  | MIC (H. influenzae HI-3542): 0.03 µg/mL (≈ 0.0745 µM); MIC (E. coli EC-2549): 0.25 µg/mL (≈ 0.621 µM); MIC (M. catarrhalis BC-3531): 0.03 µg/mL (≈ 0.0745 µM)
6 | COc1c(N2CC(CO)C3(CC3)C2)c(F)cc2c(=O)c(C(=O)O)cn(C3CC3)c12 (stereo not drawn) [drawing 429] | 0.03 (≈ 0.0745 µM) | 0.03 (≈ 0.0745 µM) | 0.06 (≈ 0.149 µM) | 
7 | COc1c(N2CCC(C(O)C3(CO)CC3)C2)c(F)cc2c(=O)c(C(=O)O)cn(C3CC3)c12 (stereo not drawn) [drawing 353] | 0.25 (≈ 0.56 µM) | 0.125 (≈ 0.28 µM) | 0.25 (≈ 0.56 µM) | 
8 | Nc1c(F)c(N2CCC(C(O)C(F)(F)F)C2)c(F)c2c1c(=O)c(C(=O)O)cn2C1CC1 (stereo not drawn) [drawing 365] | 0.5 (≈ 1.12 µM) | 0.125 (≈ 0.279 µM) | 0.06 (≈ 0.134 µM) | 
9 | O=C(O)c1cn(C2CC2)c2c(Cl)c(N3CCC(C(O)C4(CO)CC4)C3)c(F)cc2c1=O (stereo not drawn) [drawing 354] | 0.125 (≈ 0.277 µM) | 0.125 (≈ 0.277 µM) | 0.125 (≈ 0.277 µM) | 
10 | COc1c(N2CCC(C)(C(O)CC(F)(F)F)C2)c(F)cc2c(=O)c(C(=O)O)cn(C3CC3)c12 (stereo not drawn) [drawing 376] | 0.25 (≈ 0.529 µM) | 0.125 (≈ 0.265 µM) | 0.125 (≈ 0.265 µM) | 
11 | Cc1c(N2CCC(C(O)(CO)C(F)(F)F)C2)c(F)cc2c(=O)c(C(=O)O)cn(C3CC3)c12 (stereo not drawn) [drawing 371] | 0.25 (≈ 0.545 µM) | 0.25 (≈ 0.545 µM) | 0.25 (≈ 0.545 µM) | 
12 | Cc1c(N2CCC(C(C)O)C2)c(F)cc2c(=O)c(C(=O)O)cn(C3CC3)c12 (stereo not drawn) [drawing 346] |  |  |  | Minimum Inhibitory Concentrations S pyogenes C203 (S pyogenes C203): 0.06 µg/mL; Minimum Inhibitory Concentrations S. pneumo SV-1 (S. pneumo SV-1): 0.06 µg/mL; Minimum Inhibitory Concentrations E. faecalis MGH-2 (E. faecalis MGH-2; Gram Positive Bacteria): 0.06 µg/mL
13 | CC(O)(CO)C1CCN(c2c(F)cc3c(=O)c(C(=O)O)cn(C4CC4)c3c2Cl)C1 (stereo not drawn) [drawing 372] | 0.25 (≈ 0.588 µM) | 0.25 (≈ 0.588 µM) | 0.25 (≈ 0.588 µM) | 
14 | Nc1nc(-n2cc(C(=O)O)c(=O)c3cc(F)c(N4C[C@@H]5CC[C@@H](O)[C@@H]5C4)c(Cl)c32)c(F)cc1F [drawing 455] | 0.25 (≈ 0.505 µM) | 0.125 (≈ 0.253 µM) | 0.25 (≈ 0.505 µM) | 
15 | COc1c(N2C[C@@H]3CC[C@@H](O)[C@@H]3C2)c(F)cc2c(=O)c(C(=O)O)cn(C3CC3)c12 [drawing 454] | 0.125 (≈ 0.311 µM) | 0.125 (≈ 0.311 µM) | 0.125 (≈ 0.311 µM) | 
16 | Nc1nc(-n2cc(C(=O)O)c(=O)c3cc(F)c(N4CCC(C(O)CO)C4)cc32)c(F)cc1F (stereo not drawn) [drawing 358] | 0.125 (≈ 0.269 µM) | 0.06 (≈ 0.129 µM) | 0.125 (≈ 0.269 µM) | 
17 | Nc1nc(-n2cc(C(=O)O)c(=O)c3cc(F)c(N4CCC(C(O)C(F)(F)F)C4)c(Cl)c32)c(F)cc1F (stereo not drawn) [drawing 366] | 1 (≈ 1.86 µM) | 0.5 (≈ 0.931 µM) | 0.5 (≈ 0.931 µM) | 

More lines, main results first:

Row | MIC (S pyogenes C203) [µg/mL] | MIC (S. pneumo SV-1) [µg/mL] | MIC (E. faecalis MGH-2) [µg/mL] | Compound | also measured
18 | 0.5 (≈ 1 µM) | 0.5 (≈ 1 µM) | 0.5 (≈ 1 µM) | Nc1nc(-n2cc(C(=O)O)c(=O)c3cc(F)c(N4CCC(C(O)CO)C4)c(Cl)c32)c(F)cc1F (stereo not drawn) [drawing 359] | 
19 | 0.125 (≈ 0.32 µM) | 0.06 (≈ 0.154 µM) | 0.125 (≈ 0.32 µM) | COc1c(N2CCC(C(C)O)C2)c(F)cc2c(=O)c(C(=O)O)cn(C3CC3)c12 (stereo not drawn) [drawing 345] | 
20 | 1 (≈ 2.56 µM) | 1 (≈ 2.56 µM) | 2 (≈ 5.12 µM) | Cc1c(N2CCC(C(O)CO)C2)c(F)cc2c(=O)c(C(=O)O)cn(C3CC3)c12 (stereo not drawn) [drawing 356] | 
21 | 0.06 (≈ 0.147 µM) | 0.03 (≈ 0.0737 µM) | 0.06 (≈ 0.147 µM) | O=C(O)c1cn(C2CC2)c2c(Cl)c(N3CC(CO)C4(CC4)C3)c(F)cc2c1=O (stereo not drawn) [drawing 430] | 
22 | 0.5 (≈ 0.931 µM) | 0.125 (≈ 0.233 µM) | 0.5 (≈ 0.931 µM) | CC(=O)O[C@@H]1CC[C@H]2CN(c3c(F)cc4c(=O)c(C(=O)O)cn(-c5nc(N)c(F)cc5F)c4c3Cl)C[C@H]21 [drawing 456] | 
23 | 0.03 (≈ 0.073 µM) | 0.06 (≈ 0.146 µM) | 0.06 (≈ 0.146 µM) | O=C(O)c1cn(C2CC2)c2c(Cl)c(N3CCC(C(O)CO)C3)c(F)cc2c1=O (stereo not drawn) [drawing 357] | 
